{"source": "paper PMC7699649", "about": "(Communications Biology, 2020)", "key": {"[1]": {"test": "Murine EMRSA-15 lung infection model: body weight", "format": "in vivo, C57Bl6J mice"}, "HeLa": {"test_system": "HeLa", "format": "cell-based", "settings": "XTT, 24 h with peptide, OD475; Eagle's Minimum Essential Media, 10% FBS; average and standard error of three biological replicates", "procedure": "(§1) HeLa and HEK293 cell lines were purchased from ECACC and cultured in Eagle’s Minimum Essential Media containing glutamine, supplemented with 10% FBS and 1X non-essential amino acids. A549 and Calu-3 cell lines were purchased from ATCC. […] Cytotoxicity was measured by incubating starter cultures of cells for 24 h in a 96 well plate, gently removing the supernatant and replacing it with dilutions of peptides and controls, incubating for a further 24 h and then staining of the cells with the second-generation tetrazolium dye, XTT."}, "A549": {"test_system": "A549", "format": "cell-based", "settings": "XTT, 24 h with peptide, OD475; DMEM, 10% FBS; average and standard error of three biological replicates", "procedure": "as §1"}, "Calu-3": {"test_system": "Calu-3", "format": "cell-based", "settings": "XTT, 24 h with peptide, OD475; DMEM/F-12, 10% FBS; average and standard error of three biological replicates", "procedure": "as §1"}, "KC": {"test_system": "KC", "test": "Murine EMRSA-15 lung infection model: BAL cytokine ELISA", "format": "in vivo, C57Bl6J mice", "settings": "600 mg/kg vancomycin or the two higher D-pleurocidin-KR doses (15, 1.5 mg/kg) i.v., 48 h"}, "[2]": {"test": "Maximum tolerated dose (MTD) study, i.v.", "format": "in vivo", "settings": "ICR mice", "text": "SI Figures: Why are there 6 different Figure 3s with separate legends? Within the 4th - 6th Figure 3’s, what are the 4 different graphs for each of A, B, and C? […] Figure 16, 19 and 24 […]\nhave unreadable components due to overlap of text.\nEach panel that constitutes “Secondary structure analysis of pleurocidin peptides from MD simulations” and, as such, is the same data but analysed in different ways. For this reason, we considered it appropriate to consider these all as one figure. However, to provide further clarity we have renumbered the supplementary figures and added further detail to the legends. The DISICL analysis is presented with a separate panel for each peptide. This has been clarified in the figure legend.\nThe overlap in the metabolite annotation in Volcano plots is a challenge for those metabolites that do not change much or where there is low significance as they all cluster in the same place. Since they are below the significance threshold, we have elected to remove these labels. […]\nunethical to perform dose-ranging experiments to confirm this. Instead our experimental design was […]\nAs mentioned above however, we […]\nsystemic delivery of AMPs will never be possible due to insufficient therapeutic index. There is a marginal therapeutic index provided based on mammalian cell toxicity (up to 12-fold), but many existing in vitro studies of AMPs have shown greater selectivity. […]"}, "TNFα": {"test_system": "TNFα", "test": "Murine EMRSA-15 lung infection model: BAL cytokine ELISA", "format": "in vivo, C57Bl6J mice", "settings": "vancomycin or D-pleurocidin-KR i.v., 48 h"}, "EMRSA-15": {"test_system": "EMRSA-15", "test": "Murine EMRSA-15 lung infection model: lung CFU", "format": "in vivo, C57Bl6J mice", "text": "CFUs were quantified in lung homogenates."}, "HEK293": {"test_system": "HEK293", "format": "cell-based, human", "settings": "XTT, 24 h with peptide, OD475; Eagle's Minimum Essential Media, 10% FBS; average and standard error of three biological replicates", "procedure": "as §1"}, "MCP-1": {"test_system": "MCP-1", "test": "Murine EMRSA-15 lung infection model: BAL cytokine ELISA", "format": "in vivo, C57Bl6J mice", "settings": "vancomycin or D-pleurocidin-KR i.v., 48 h"}}, "note": "Non-standard residues stand in square brackets, D forms with d. Residues, ends and D or L forms follow the SMILES beside them.", "data": [{"molecule": "CC(C)C[C@@H](NC(=O)[C@@H](Cc1ccc(O)cc1)NC(=O)[C@@H](Cc1c[nH]cn1)NC(=O)[C@H](NC(=O)[C@@H](CC(C)C)NC(=O)[C@@H](C)NC(=O)[C@@H](C)NC(=O)[C@@H](CCCNC(=N)N)NC(=O)CNC(=O)[C@H](NC(=O)[C@@H](Cc1c[nH]cn1)NC(=O)[C@@H](CCCNC(=N)N)NC(=O)CNC(=O)[C@H](NC(=O)[C@@H](Cc1c[nH]cn1)NC(=O)[C@@H](C)NC(=O)[C@@H](C)NC(=O)[C@@H](CCCNC(=N)N)NC(=O)[C@@H](CCCNC(=N)N)NC(=O)[C@@H](Cc1ccccc1)NC(=O)[C@@H](Cc1ccccc1)NC(=O)[C@@H](CO)NC(=O)CNC(=O)[C@@H](Cc1c[nH]c2ccccc12)NC(=O)CN)C(C)C)C(C)C)[C@H](C)O)C(N)=O", "note": "[D-pleurocidin-KR] (H-G[dW]G[dS][dF][dF][dR][dR][dA][dA][dH][dV]G[dR][dH][dV]G[dR][dA][dA][dL][dT][dH][dY][dL]-NH2; N-terminus assumed)", "values": [{"measurement": "weight loss over the 48-h infection period", "setting": "[1]; cumulative 15 or 1.5 mg/kg/48 h D-pleurocidin-KR, 600 mg/kg vancomycin, i.v.", "result": "mitigates this weight loss"}, {"measurement": "weight loss over the 48-h infection period", "setting": "[1]; lowest dose of 0.15 mg/kg D-pleurocidin-KR i.v.", "result": "no observable effect"}, {"measurement": "Toxicity HeLa (EC50 / IC50)", "setting": "HeLa", "result": "(25.3 ± 2.2) µg/ml"}, {"measurement": "Toxicity A549 (EC50 / IC50)", "setting": "A549", "result": "(56.5 ± 4.5) µg/ml"}, {"measurement": "Toxicity Calu-3 (EC50 / IC50)", "setting": "Calu-3", "result": "(39.1 ± 1.8) µg/ml"}, {"measurement": "KC levels in BAL", "setting": "KC", "result": "fall to that of the uninfected group"}, {"measurement": "dose tolerated when administered i.v.", "setting": "[2]", "result": 15, "unit": "mg/kg/24 h"}, {"measurement": "levels of TNFα in BAL", "setting": "TNFα", "result": "No effects"}, {"measurement": "reduction in lung CFU", "setting": "EMRSA-15; cumulative 1.5 mg/kg/48 h i.v. (three doses at 4, 24, 30 h post infection)", "result": 0.9, "unit": "log10"}, {"measurement": "reduction in lung CFU", "setting": "EMRSA-15; cumulative 15 mg/kg/48 h i.v. (three doses at 4, 24, 30 h post infection)", "result": 1.1, "unit": "log10"}, {"measurement": "reduction in lung CFU", "setting": "EMRSA-15; lowest dose, cumulative 0.15 mg/kg i.v., 48 h", "result": "did not cause a significant reduction"}, {"measurement": "Toxicity HEK293 (EC50 / IC50)", "setting": "HEK293", "result": "(36.4 ± 4.3) µg/ml"}, {"measurement": "levels of MCP-1 in BAL", "setting": "MCP-1", "result": "No effects"}]}]}
